# Reference: patent US7598419B2, “Compounds for modulating cell proliferation” (HSC Research and Development Limited Partnership, priority 2004, dated 2009)
# Assays:
# [1] = tested on: cells of the myeloid lineage; details: in vitro, ex vivo and in vivo; cited from earlier work
# [2] = tested on: Philadelphia positive acute lymphoblastic leukemia cells; assay: In vitro purging of Philadelphia positive ALL with CR11; type: cell-based, human; details: 50 μM, 7 hours exposure; FIG. 22
# Experimental: For the purging assay, the cells were resuspended in complete medium with or without CR11 as indicated and incubated at 37° C., 5% CO2 for 0-7 hours. Cells were then washed thoroughly with medium to remove the CR11, resuspended and plated in 1 ml volumes, in the absence of exogenous growth factors, into 35 mm petri dishes (Nunc, Gibco) containing alpha MEM (Gibco) plus 20% FCS (Cansera Rexdale, ON.) in 0.9% (vol/vol) methylcellulose (Fluka, Switzerland). Cultures were set at 37° C., 5% CO2 in a humidified atmosphere. Colonies consisting of more than 20 cells were counted at 9 days or earlier using an inverted microscope.
# normal bone marrow cells [3] = assay: In vitro purging of normal bone marrow; type: cell-based, human; details: 50 μM, seven hours exposure; FIG. 21
# Experimental: Heparinized bone marrow cells were layered over Percoll (1.077 gm/ml) (Pharmacia Fine Chemical, Piscataway N.J.) and centrifuged at 400 g at 4° C. for 10 minutes to remove neutrophils and RBCs.
# (§1) For the purging process, the cells were resuspended at 1×10^6/ml in complete medium with or without 50 μM CR4. The cells were incubated with the CR4 for two and a half hours at 37° C., 5% CO2. At the end of this period the cells were thoroughly washed in medium to remove CR4 and then cultured at 2×10^5 cells/ml in IMDM (OCI, Toronto) containing 0.9% (vol/vol) methylcellulose supplemented with 30% FCS (Cansera Rexdale, ON.) or normal human plasma, a cocktail of cytokines containing G-CSF (10 ng/ml, Amgen), IL-3 (40 U/ml, Immunex), MGF (50 ng/ml, Immunex), Erythropoietin (2 u/ml, Epprex) or TPO (10 ng/ml, Amgen) and 5×10^−5M β-2-mercaptoethanol. The culture mixture was plated in 1 ml volumes into 35 mm petri dishes and incubated at 37° C., 5% CO2 in a humidified atmosphere. All cultures were evaluated at 14 days for the number of BFU-E colonies (defined as aggregates of more than 500 hemaglobinized cells or, 3 or more erythroid subcolonies), CFU-C colonies (defined as granulocyte or monocyte-macrophage cells or both) and CFU-GEMM colonies (a mixed population comprising of all elements).
# as §1, with “μM CR11.” for “μM CR4.”, “the tryrphostin” for “the CR4”, “for seven” for “for two and a half”, “remove CR11” for “remove CR4”, “methylcellulose supplementd” for “methylcellulose supplemented”, “500 hemoglobinized” for “500 hemaglobinized”
# [4] = tested on: Philadelphia positive ALL, AML and lymphoma; assay: High dose ex vivo / in vitro purging assays (summary); type: cell-based
# [5] = tested on: a variety of cancer cells; assay: Growth of cancer cells in culture (summary over cell types); type: cell-based; details: for effectiveness against a variety of cell types: Acute Lymphoblastic Leukemia, Philadelphia positive Leukemia, Acute Myeloid Leukemia
# normal bone marrow cells [6] = assay: CFU-GEMM assay: normal bone marrow differentiation in culture; type: cell-based, human
# Experimental: (§2) The CFU-GEMM assay was performed according to Fauser and Messner (1978, Blood, 52(6) 143-8) and Messner and Fausser (1980, Blut, 41(5) 327-33) with some variations. In brief, heparinized bone marrow cells were layered over Percoll (1.077 gm/ml) (Pharmacia Fine Chemical, Piscataway N.J.) and centrifuged at 400 g at 4° C. for 10 minutes to remove neutrophils and RBCs. The fractionated BM cells at 2×10^5 cells/ml were cultured in IMDM (OCI, Toronto) containing 0.9% (vol/vol) methylcellulose supplementd with 30% FCS (Cansera Rexdale, ON.) or normal human plasma, a cocktail of cytokines containing G-CSF (10 ng/ml, Amgen), IL-3 (40 U/ml, Immunex), MGF (50 ng/ml, Immunex), Erythropoietin (2 u/ml, Epprex) or TPO (10 ng/ml, Amgen), 5×10^−5M β-2-mercaptoethanol and the specified concentration of CR4. The culture mixture was plated in 1 ml volumes into 35 mm petri dishes and incubated at 37° C., 5% CO2 in a humidified atmosphere. All cultures were evaluated at 14 days for the number of BFU-E colonies (defined as aggregates of more than 500 hemoglobinized cells or, 3 or more erythroid subcolonies), CFU-GM colonies (defined as granulocyte or monocyte-macrophage cells or both), CFU-Meg colonies (comprising 4 or more megakaryocytes) and CFU-GEMM colonies (a mixed population comprising of all elements).
# as §2, with “1243-8)” for “143-8)”, “concentrations” for “concentration”, “CR19.” for “CR4.”, “hemaglobinized” for “hemoglobinized”, “subcolonies) and CFU-C” for “subcolonies), CFU-GM”, “both).” for “both), CFU-Meg colonies (comprising 4 or more megakaryocytes) and CFU-GEMM colonies (a mixed population comprising of all elements).”
# as §2, with “1243-8)” for “143-8)”, “variations (British Journal of Haematology, 1992, 80, p 40-48).” for “variations.”, “test compound.” for “CR4.”, “CO2,” for “CO2”, “subcolonies) and CFU-C” for “subcolonies), CFU-GM”, “both).” for “both), CFU-Meg colonies (comprising 4 or more megakaryocytes) and CFU-GEMM colonies (a mixed population comprising of all elements).”
# [7] = tested on: Philadelphia positive acute lymphoblastic leukemia (Ph+ ALL) cells; assay: Colony assay of Philadelphia positive ALL cells in methylcellulose culture; type: cell-based, human
# Experimental: (§3) Ph+ ALL cells were plated in 1 ml volumes, in the absence of exogenous growth factors, into 35 mm petri dishes (Nunc, Gibco) containing alpha MEM (Gibco) plus 10-20% FCS (Cansera Rexdale, ON.) in 0.9% (vol/vol) methylcellulose (Fluka, Switzerland) with the indicated concentrations of CR4. Cultures were set at 37° C., 5% CO2 in a humidified atmosphere. Colonies consisting of more than 20 cells were counted at 12 days or earlier using an inverted microscope.
# as §3, with “ALL” for “Ph+ ALL”, “20%” for “10-20%”, “and” for “with”, “compound.” for “CR4.”
# as §3, with “ALL” for “Ph+ ALL”, “20%” for “10-20%”, “and” for “with”, “CR24.” for “CR4.”, “9” for “12”
# as §3, with “ALL” for “Ph+ ALL”, “20%” for “10-20%”, “and” for “with”, “CR19.” for “CR4.”, “9” for “12”
# [8] = low nanomolar doses, long term exposure
structure (smiles),measurement,setting,value
"COc1cc(/C=C/C=C(C#N)C#N)cc(OC)c1O [CR7, (E,E)-2-cyano-3-(3,5-dimethoxy-4-hydroxystyryl)acrylonitrile]",promotion of myelopoiesis,[1],capable of promoting myelopoiesis
"COc1cc(/C=C/C=C(\C#N)C(=O)NCCc2ccccc2)cc(OC)c1O [CR8, (E,E)-2-(Phenylethylaminocarbonyl)-3-(3,5-dimethoxy-4-hydroxystyryl)acrylonitrile]",promotion of myelopoiesis,[1],capable of promoting myelopoiesis
"COc1cc(/C=C/C=C(\C#N)C(=O)NCc2ccc(O)c(O)c2)cc(OC)c1O [CR11, (E,E)-2-(3,4-Dihydroxybenzylaminocarbonyl)-3-(3,5-dimethoxy-4-hydroxystyryl)acrylonitrile]",killing of Ph+ ALL cells after purging,[2],complete killing
same,"BFU-E, CFU-GEMM and CFU-C colonies after purging",normal bone marrow cells [3],all normal
same,colony formation of normal bone marrow after purging,normal bone marrow cells [3],did not result in any significant inhibition
same,effectiveness as ex vivo purging agents,[4],effective
same,effectiveness against a variety of cell types,[5],highly effective
same,promotion of myelopoiesis,[1],capable of promoting myelopoiesis
"N#C/C(=C\C=C\c1ccccc1)C(=O)NCc1ccc(O)c(O)c1 [CR19, (E,E)-2-(3,4 Dihydroxybenzylaminocarbonyl)-3-styrylacrylonitrile]",effectiveness against a variety of cell types,[5],highly effective
same,toxicity to cancer cells,[5]; [8],highly toxic
same,CFU-C colony formation,"normal bone marrow cells [6]; 2.5 μM, 14 days, FIG. 12",boosted
same,development of BFU-E colonies,"normal bone marrow cells [6]; 2.5 μM, 14 days, FIG. 12",significant inhibition
same,BFU-E colonies,"normal bone marrow cells [6]; 5 μM, 14 days, FIG. 12",virtually absent
same,CFU-C colony formation,"normal bone marrow cells [6]; 5 μM, 14 days, FIG. 12",stimulatory effect disappeared
same,normal cell growth and differentiation,normal bone marrow cells [6]; [8],unaffected
same,promotion of myelopoiesis,[1],capable of promoting myelopoiesis
"N#C/C(=C\C=C\c1ccc(O)c(O)c1)C(=O)NCc1ccc(O)c(O)c1 [CR21, (E,E)-2-(3,4 Dihydroxybenzylaminocarbonyl)-3-(3,4-dihydroxystyryl)acrylonitrile]",concentrations displaying inhibition of Ph+ ALL cell growth,"[7]; Example 42, FIG. 8, colonies at 12 days",5 µM
same,BFU-E colony formation,"normal bone marrow cells [6]; 20 μM, 14 days, FIG. 13",caused inhibition
"COc1cc(/C=C/C=C(\C#N)C(=O)NCCO)cc(OC)c1O [CR24, (E,E)-2-(β-Ethanolaminocarbonyl)-3-(3,5-dimethoxy-4-hydroxystyryl)acrylonitrile]",lowest concentration effective against Ph+ ALL cells,"[7]; colonies at 9 days, FIG. 10",0.5 µM
same,bone marrow colony formation,"normal bone marrow cells [6]; 10 or 20 μM, 14 days, FIG. 13",minimal inhibition
"COc1cc(/C=C/C=C(\C#N)C(=O)NCc2ccccc2)ccc1O [CR56, (E,E) 2-(benzylaminocarbonyl)-3-(3-methoxy-4-hydroxystyryl)acrylonitrile]",promotion of myelopoiesis,[1],capable of promoting myelopoiesis
